These results are taken from patent US8361968B2 (Takeda Pharmaceutical Company Limited, priority 2002, dated 2013).

Square brackets hold non-standard residues; d marks the D form. Ends that are not written are not given here. Peptide text beside a SMILES is read from it. Arg(Me) = CNC(=N)NCCC[C@H](N)C(=O)O

For assay [1], the target named is T1, hOT7T175 (Homo sapiens, UniProt Q969F8, L364H). Description: hOT7T175 receptor binding activity: binding inhibition of Cy-5-labeled metastin (40-54) on hOT7T175-expressed CHO cells. Also noted: expressed in transfected cells; host or cells: CHO cells. On the procedure:
Assay for hOT7T175 Receptor Binding Activity
h0T7T175-Expressed CHO cells were cultured in MEM-cc medium (nucleic acid-free) containing 10% dialyzed serum. The medium was removed and the adherent cells were washed with PBS. Then, PBS containing 5 mM EDTA was added and the cells were scraped from a flask with a cell scraper. […] To each well of a 96-Well Black Clear Bottom Plate (Applied Biosystems, Inc.), 10 μL of assay buffer containing 1% dimethylsulfoxide was added to examine total binding, 10 μL of 10 μM non-labeled peptide (having the same amino acid sequence as that of the labeled one) solution diluted with assay buffer to examine non-specific binding, and 10 μL of a test compound diluted with assay buffer to examine the binding inhibition activity of the test compound, respectively. Furthermore, 90 μL each of the cell suspension was dispensed to each well. […] The specific binding is a value obtained by subtracting the non-specific binding from the total binding.

In assay [2] the target is T1, hOT7T175. The assay is described as follows: Intracellular Ca ion level-increasing activity using FLIPR in hOT7T175/CHO. The format is cell-based. As to conditions: relative, Metastin (1-54) = 1. Also noted: expressed in transfected cells; host or cells: CHO/dhfr- cells, obtained from ATCC.

T1 sequence (Q969F8 whole entry L364H): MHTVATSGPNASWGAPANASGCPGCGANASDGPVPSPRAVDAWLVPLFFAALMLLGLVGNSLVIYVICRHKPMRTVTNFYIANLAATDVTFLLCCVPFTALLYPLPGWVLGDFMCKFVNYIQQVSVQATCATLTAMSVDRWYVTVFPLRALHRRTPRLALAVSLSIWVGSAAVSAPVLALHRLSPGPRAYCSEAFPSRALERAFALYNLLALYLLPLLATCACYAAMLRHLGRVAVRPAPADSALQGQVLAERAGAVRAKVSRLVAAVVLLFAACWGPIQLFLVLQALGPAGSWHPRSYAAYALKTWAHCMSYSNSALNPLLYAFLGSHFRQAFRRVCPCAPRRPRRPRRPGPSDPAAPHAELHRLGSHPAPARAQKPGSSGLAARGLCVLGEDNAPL

The IC50 is the concentration that inhibits the measured activity by half. Read a low IC50 as greater potency. As for `CC(C)C[C@H](NC(=O)CNC(=O)[C@H](Cc1ccccc1)NC(=O)[C@H](CO)NC(=O)[C@H](CC(N)=O)NC(=O)[C@H](Cc1c[nH]c2ccccc12)NC(=O)[C@@H](N)CC(N)=O)C(=O)N[C@@H](CCCNC(=N)N)C(=O)N[C@@H](Cc1ccccc1)C(N)=O` [Compound No. 4, des(1)-MS10, reference compound] (H-NWNSFGLRF-NH2; N-terminus assumed), the IC50 on hOT7T175 [1] turned out to be 260 nM.

The compound `CC(C)C[C@H](NC(=O)CNC(=O)[C@H](Cc1ccccc1)NC(=O)[C@H](CO)NC(=O)[C@H](CC(N)=O)NC(=O)[C@H](Cc1c[nH]c2ccccc12)NC(=O)[C@H](CC(N)=O)NC(=O)[C@@H](N)Cc1ccc(O)cc1)C(=O)N[C@@H](CCCCN)C(=O)N[C@@H](Cc1ccccc1)C(N)=O` [Compound No. 44] (H-YNWNSFGLKF-NH2) displayed an IC50 on hOT7T175 [1] of 190 nM. `CC(C)C[C@H](NC(=O)CNC(=O)[C@H](Cc1ccccc1)NC(=O)[C@H](CO)NC(=O)[C@H](CC(N)=O)NC(=O)[C@H](Cc1c[nH]c2ccccc12)NC(=O)[C@H](CC(=O)O)NC(=O)[C@@H](N)Cc1ccc(O)cc1)C(=O)N[C@@H](CCCNC(=N)N)C(=O)N[C@@H](Cc1ccccc1)C(N)=O` [Compound No. 57] (H-YDWNSFGLRF-NH2) returned an IC50 at hOT7T175 [1] of 100 nM. Compared with the last compound, the IC50 is about 1.9-fold lower. For the compound `CC(C)C[C@H](NC(=O)CNC(=O)[C@H](Cc1ccccc1)NC(=O)[C@H](CO)NC(=O)[C@H](CC(N)=O)NC(=O)[C@H](Cc1c[nH]c2ccccc12)NC(=O)[C@H](CC(C)C)NC(=O)[C@@H](N)Cc1ccc(O)cc1)C(=O)N[C@@H](CCCNC(=N)N)C(=O)N[C@@H](Cc1ccccc1)C(N)=O` [Compound No. 59] (H-YLWNSFGLRF-NH2), the IC50 on hOT7T175 [1] turned out to be 340 nM. Same read-out and setting: to `CC(C)C[C@H](NC(=O)CNC(=O)[C@H](Cc1ccccc1)NC(=O)[C@H](CO)NC(=O)[C@H](CC(N)=O)NC(=O)[C@H](C)NC(=O)[C@H](CC(N)=O)NC(=O)[C@@H](N)Cc1ccc(O)cc1)C(=O)N[C@@H](CCCNC(=N)N)C(=O)N[C@@H](Cc1ccccc1)C(N)=O` [Compound No. 67] (H-YNANSFGLRF-NH2) belongs 27 nM. For the compound “D-Tyr-Asn-Trp-Gln-Ser-Phe-Gly-Leu-Arg(Me)-Phe-NH2 ([dY]NWQSFGL[Arg(Me)]F-NH2; N-terminus assumed; SMILES CNC(=N)NCCC[C@H](NC(=O)[C@H](CC(C)C)NC(=O)CNC(=O)[C@H](Cc1ccccc1)NC(=O)[C@H](CO)NC(=O)[C@H](CCC(N)=O)NC(=O)[C@H](Cc1c[nH]c2ccccc12)NC(=O)[C@H](CC(N)=O)NC(=O)[C@H](N)Cc1ccc(O)cc1)C(=O)N[C@@H](Cc1ccccc1)C(N)=O) [Compound No. 209]”, the “Specific Activity (intracellular Ca ion level-increasing activity)” value in the assay with hOT7T175 [2] was “½”. For the compound “D-Tyr-Asn-Trp-Ser-Ser-Phe-Gly-Leu-Arg(Me)-Phe-NH2 ([dY]NWSSFGL[Arg(Me)]F-NH2; N-terminus assumed; SMILES CNC(=N)NCCC[C@H](NC(=O)[C@H](CC(C)C)NC(=O)CNC(=O)[C@H](Cc1ccccc1)NC(=O)[C@H](CO)NC(=O)[C@H](CO)NC(=O)[C@H](Cc1c[nH]c2ccccc12)NC(=O)[C@H](CC(N)=O)NC(=O)[C@H](N)Cc1ccc(O)cc1)C(=O)N[C@@H](Cc1ccccc1)C(N)=O) [Compound No. 207]”, in the assay with hOT7T175 [2], the “Specific Activity (intracellular Ca ion level-increasing activity)” value is recorded as “½”. “D-Tyr-D-Pya(4)-Asn-Ser-Phe-AzaGly-Leu-Arg(Me)-Trp-NH2 [Compound No. 385]”: at hOT7T175 [2], the “Specific Activity (intracellular Ca ion level-increasing activity)” value stood at 10. For “Dap-D-Tyr-Asn-Trp-Asn-Ser-Phe-Gly-Leu-Arg(Me)-Phe-NH2 [Compound No. 387]”, at hOT7T175 [2], the “Specific Activity (intracellular Ca ion level-increasing activity)” value is reported as 1. The same measure, in the same setting: for “Methylthiocarbamoyl-Sar-D-Tyr-Asn-Trp-Asn-Ser-Phe-Gly-Leu-Arg(Me)-Phe-NH2 [Compound No. 397]” the value was 5; for “Tyr-Asn-Trp-Asn-Ser-Phe-Gly-Ala-Arg-Phe-NH2 (YNWNSFGARF-NH2) [Compound No. 45]”, 1. “Tyr-Asn-Trp-Phe-Gly-Leu-Arg-Phe-NH2 (YNWFGLRF-NH2) [Compound No. 88]”: in the assay with hOT7T175 [2], the “Specific Activity (intracellular Ca ion level-increasing activity)” value amounted to 1.
